Measurements taken from patent US20060111305A1, “Metabolites of certain [1,4]diazepino[6,7,1-ij]quinoline derivatives and methods of preparation and use thereof” (Wyeth, priority 2004, published 2006).
Like-named read-outs stand apart in the source and are kept apart here. Marks after values point to notes of the source that are not given here.

Experiments:
[1] = Incubation of [14C]DCDQ with dog liver microsomes; assay type: in vitro ADME, beagle dogs
Procedure: (§1) [^14C]DCDQ was mixed with non-radiolabeled DCDQ (1:3 or 1:5) in the incubations. Microsomal incubations consisted of [^14C]DCDQ, magnesium chloride (10 mM) and liver microsomes incubated in 0.5 mL of 0.1 M potassium phosphate buffer, pH 7.4. [^14C]DCDQ (20 μL) in water was added to the incubation tubes containing buffer, magnesium chloride solution and microsomes. After mixing, the tubes were pre-incubated for 2 minutes in a shaking water bath at 37° C. The reactions were initiated by the addition of UDPGA or the NADPH regenerating system. UDPGA was added to incubations as a 50 μL aliquot of a 20 mM solution in water, to give a final concentration of 2 mM. An NADPH regenerating system (30 μL) was added to incubations to evaluate CYP450-mediated metabolism. The NADPH regenerating system consisted of glucose-6-phosphate (2 mg/mL), glucose-6-phosphate dehydrogenase (0.8 units/mL) and NADP^+ (2 mg/mL). Control incubations were conducted under the same conditions, but without the NADPH generating system, UDPGA or microsomes. All incubations were performed in duplicate. Incubations were stopped by the addition of 0.5 mL ice-cold methanol. Samples were vortex-mixed. Denatured proteins were separated by centrifugation at 4300 rpm and 4° C. for 10 minutes (Model T21 super centrifuge, Sorvall). The protein pellets were extracted with 0.5 mL of methanol. The supernatant was combined for each sample, mixed and evaporated to a volume of about 0.3 mL under a nitrogen stream in a Zymark TurboVap LV evaporator (Caliper Life Science, Hopkinton, Mass.). The concentrated sample was centrifuged and aliquots were radioassayed and analyzed by HPLC. This method recovered an average of 92.1% of the radioactivity from the reaction mixture.
(§2) To evaluate species differences in cytochrome P450- and UGT-mediated metabolism, [^14C]DCDQ was incubated for 20 minutes with 0.5 mg/mL liver microsomal proteins from mice, rats, dogs or humans in the presence of the NADPH regenerating system or UDPGA. The assay conditions were the same as described above, and DCDQ concentrations were 12 μM and 56 μM for cytochrome P450- and UGT-mediated metabolism, respectively.
(§3) A Waters model 2690 HPLC system (Waters Corp., Milford, Mass.) with a built-in autosampler was used for analysis. Separations were accomplished on a Phenomenex Luna C18(2) column (2×150 mm, 5 μm) (Phenomenex, Torrance, Calif.) coupled with a filter (4×2 mm) cartridge. A variable wavelength UV detector set to monitor 250 nm and Flo-One β Model A525 radioactivity flow detector (Perkin Elmer) with a 250 μL LQTR flow cell were used for data acquisition. The flow rate of Ultima Flow M scintillation fluid was 1 mL/min, providing a mixing ratio of scintillation cocktail to mobile phase of 5:1. […]

[2] = Incubation of [14C]DCDQ with human liver microsomes (Km values, metabolite formation); assay type: in vitro ADME; details: for metabolite detected in microsomal incubation: human
Procedure: as §1
(§4) Initial rate conditions were determined for DCDQ metabolism in incubations with human liver microsomes in the presence of NADPH or UDPGA. Incubations for the time course study contained 20 μM of [^14C]DCDQ and 0.5 mg/mL of microsomal proteins, and were incubated at 37° C. with mild shaking for 0, 5, 10, 20, 30, 40, 50 and 60 minutes. The protein dependence study was conducted with 20 μM of [^14C]DCDQ incubated for 20 minutes with 0, 0.1, 0.25, 0.5, 0.75 and 1.0 mg/mL of microsomal proteins.
(§5) The Km values were determined with 0.5 mg/mL of human liver microsomes incubated with [^14C]DCDQ for 20 minutes with the NADPH regenerating system or for 10 minutes with UDPGA. [^14C]DCDQ concentrations used were 0.5,1, 5, 10, 25, 50, 75 and 100 μM.
as §2
as §3, with “5:1. The sample chamber in the autosampler was maintained at 4° C., while the column was at ambient temperature of about 20° C. The mobile phase consisted of 10 mM ammonium acetate, pH 4.5 (A) and methanol (B) and was delivered at 0.2 mL/min. The linear gradient conditions were as follows:” for “5:1.”

[3] = tested on: cytochrome P450 (NADPH-dependent metabolism); test: as above; assay type: in vitro ADME; details: pH 7.4; 0.5 mg/mL human liver microsomes, [14C]DCDQ 0.5-100 μM, NADPH regenerating system, 20 min
Procedure: as §1, §4, §5, §2
as §3, with “5:1. The sample chamber in the autosampler was maintained at 4° C., while the column was at ambient temperature of about 20° C. The mobile phase consisted of 10 mM ammonium acetate, pH 4.5 (A) and methanol (B) and was delivered at 0.2 mL/min. The linear gradient conditions were as follows:” for “5:1.”

[4] = Rat plasma metabolite profiles after single oral 5 mg/kg [14C]DCDQ; assay type: in vivo, Sprague-Dawley rats; details: for concentration at 2 h / concentration at 8 h / concentration at 4 h: Sprague-Dawley, rat, plasma, mean n = 3, read-out: Estimated plasma concentration in rats
Procedure: Plasma samples were analyzed for metabolite profiles by HPLC. Aliquots of 1.5 mL plasma were mixed with 3.0 mL methanol, placed on ice for about 10 minutes, and then centrifuged. The supernatant was transferred to a clean tube. The protein pellets were extracted once with 3.0 mL methanol. The supernatants from precipitation and extraction of each sample were pooled, mixed, and evaporated at 22° C. under nitrogen in a Zymark TurboVap LV (Caliper Life Sciences, Hopkinton, Mass.) to about 0.3 mL. The concentrated extract was centrifuged, the supernatant volume measured and extraction efficiency was determined by analyzing duplicate 10 μL aliquots for radioactivity. An aliquot of the supernatant (50-200 μL) was analyzed by HPLC with radioactivity flow detection. Plasma extracts were also analyzed by LC/MS.
A Waters model 2690 HPLC system (Waters Corp., Milford, Mass.) with a built-in autosampler was used for analysis. Separations were accomplished on a Phenomenex Luna C18(2) column (150×2.0 mm, 5 μm) (Phenomenex, Torrance, Calif.). The sample chamber of the autosampler was maintained at 4° C., while the column was at ambient temperature of about 20° C. A variable wavelength UV detector set to monitor 250 nm and a Flo-One β Model A525 radioactivity detector described above were used for data acquisition. The HPLC mobile phase consisted of 10 mM ammonium acetate, pH 4.5 (A) and methanol (B), and was delivered at 0.2 mL/min. Chromatographic condition A was used for dose analysis, while condition B was used for analysis of urine and plasma, brain and fecal extracts.

[5] = NADPH regenerating system, 12 μM DCDQ, 20 min

SMILES | metabolite detected in microsomal incubation [1, 5] | metabolite detected in microsomal incubation [2, 5] | Km at 20 min [3] [µM] | metabolite detected in microsomal incubation ([1]; UDPGA, 56 μM DCDQ) | amount of metabolite detected ([2]; human liver microsomes, DCDQ 20 μM, both NADPH and UDPGA) | metabolite detected in microsomal incubation ([2]; UDPGA, 56 μM DCDQ) | concentration at 2 h ([4]; female, 2 hr) [ng/mL] | concentration at 8 h ([4]; female, 8 hr) [ng/mL] | concentration at 2 h ([4]; male, 2 hr) [ng/mL] | concentration at 4 h ([4]; male, 4 hr) [ng/mL] | concentration at 8 h ([4]; male, 8 hr) [ng/mL] | Chromatographic distribution of radioactivity in rat plasma ([4]; female, 2 hr, mean n = 3) | Chromatographic distribution of radioactivity in rat plasma ([4]; female, 8 hr, mean n = 3) | Chromatographic distribution of radioactivity in rat plasma ([4]; male, 2 hr, mean n = 3) [%] | Chromatographic distribution of radioactivity in rat plasma ([4]; male, 4 hr, mean n = 3) [%] | Chromatographic distribution of radioactivity in rat plasma ([4]; male, 8 hr, mean n = 3) [%] | Estimated plasma concentration in rats ([4]; female, 2 hr, mean n = 3)
[O-][N+]12CCN=Cc3cccc(c31)[C@H]1CCC[C@H]1C2 (stereo partly shown) [Metabolite M5, DCDQ imine N-oxide] | detected | detected | 36.2 | – | – | – | – | – | – | – | – | – | – | – | – | – | –
O=C(O)[C@H]1O[C@@H](OC(=O)N2CCN3C[C@@H]4CCC[C@@H]4c4cccc(c43)C2)[C@H](O)[C@@H](O)[C@@H]1O [Metabolite M6, carbamoyl glucuronide of DCDQ] | – | – | – | detected | only minor amounts | detected | – | – | – | – | – | – | – | – | – | – | –
c1cc2c3c(c1)[C@H]1CCC[C@H]1CN3CCNC2 [DCDQ, (9aR,12aS)-4,5,6,7,9,9a,10,11,12,12a-decahydro-cyclopenta[c][1,4]diazepine[6,7,1-ij]quinoline, reference compound] | – | – | – | – | – | – | 132 | 49.4 | 86.9 | 90.8 | 58.7 | 20% | 15% | 14 | 14 | 13 | –
OC1[C@@H]2CCC[C@@H]2c2cccc3c2N1CCNC3 (stereo partly shown) [Metabolite M2, hydroxy DCDQ] | observed | detected | 8.9 to 13.8 | – | – | – | – | 4.4 | 32.3 | 22.6 | 20 | BQL | 1.5^e % | 5.2 | 3.4 | 4.3 | BQL
OC1CN2C[C@@H]3CCC[C@@H]3c3cccc(c32)CN1 (stereo partly shown) [Metabolite M1, hydroxy DCDQ] | not detected | detected | 10.8 | – | – | – | 12.6 | 6.52 | 88.4 | 59.7 | 41.9 | 2.0^d % | 1.9^d % | 14 | 9.1 | 8.9 | –
O=C1CC[C@@H]2c3cccc4c3N(CCNC4)C[C@H]12 [Metabolite M7, 17-keto DCDQ] | – | – | – | – | – | – | 35.6 | 17.5 | 63.6 | 62.1 | 53 | 5.4^d % | 5.6% | 10 | 9.4 | 12 | –
